Experiments:
Assay type in all cases: in vivo
Dipylidium caninum = assay: Oral Test in dogs naturally infected with Dipylidium caninum; conditions: single oral dose in gelatine capsule (Reference Example 1 5 mg/kg, praziquantel 1.25 mg/kg), postmortem on 10th day
Method: (§1) Compound (5 mg/kg) of Reference Example 1 and praziquantel (1.25 mg/kg) were encapsulated into gelatine to a predetermined amount to prepare a formulation for Oral Test. Incidentally, formulations were prepared as controls by using each of the compound of Reference Example 1 solo and fipronil solo to carry out the test.
(§2) The formulation was administered orally once to dogs (two dogs in each test location) naturally infected with Dipylidium caninum and Toxocara canis. Incidentally, the infection with Dipylidium caninum was confirmed by the excretion of proglottid of Dipylidium caninum into faeces three days before administration of drugs. The infection with Toxocara canis was confirmed by the excretion of eggs of Toxocara canis into faeces immediately before administration of drugs. On the 10th day after the administration of drugs, the dogs were subjected to postmortem to count the number of surviving Dipylidium caninum and Toxocara canis.

Toxocara canis = assay: Oral Test in dogs naturally infected with Toxocara canis; conditions: single oral dose in gelatine capsule (Reference Example 1 5 mg/kg, praziquantel 1.25 mg/kg), postmortem on 10th day
Method: as §1, §2

mites = assay: Spot-on Test (Extermination Test on Mites) in dogs; conditions: dogs naturally infected; spot-on to back of neck, 5 mg/kg of Reference Example 1 (10 g : 3.8 g fipronil per 100 ml); examined three days after administration
Method: Compound (10 g) of Reference Example 1 and fipronil (3.8 g) were mixed. This mixture was dissolved in a mixed solvent (9:1) of benzyl alcohol and propylene carbonate so as to be a total volume of 100 ml, and 0.05% of BHT was further added to prepare a formulation for the spot-on test. Further, as a control, formulations were prepared by using each of the compound of Reference Example 1 solo and fipronil solo to carry out the test.
The above-described formulation for spot-on test was dropped to the back part of the neck of each dog (two dogs in each test location) naturally infected with mites at a dose of 5 mg/kg of the compound in Reference Example 1. In each dog, infection with mites was examined three days after the dropwise administration.

## 13-[1-(4-methoxyacetylaminophenyl) cyclopentanecarbonyloxy]-5-hydroxy-milbemycin A4 [Reference Example 1]
Dipylidium caninum
  exterminating Dipylidium caninum (number of surviving parasites at postmortem): ineffective
Toxocara canis
  exterminating Toxocara canis (number of surviving parasites at postmortem): effective
mites
  treating infection with mites: ineffective

## N#Cc1nn(-c2c(Cl)cc(C(F)(F)F)cc2Cl)c(N)c1[S+]([O-])C(F)(F)F (stereo not drawn) [fipronil]
mites
  treating infection with mites: ineffective

## O=C(C1CCCCC1)N1CC(=O)N2CCc3ccccc3C2C1 (stereo not drawn) [praziquantels, praziquantel]
Dipylidium caninum
  exterminating Dipylidium caninum (number of surviving parasites at postmortem): effective
Toxocara canis
  exterminating Toxocara canis (number of surviving parasites at postmortem): ineffective

Source: patent US20040254125A1, “Anthelmintic composition” (priority 2001, published 2004)
